According to patent publication US8153413B2, “High alkaline protease and use thereof” (Japan Agency for Marine-Earth Science and Technology, priority 2004, dated 2012):
Entries after “also recorded” stand apart in the source; their conditions may differ. Read-outs that look alike come from different tables or passages of the source. * marks the point of attachment. butyroxycarboxy = not defined here; pNA = O=[N+]([O-])c1ccc(N*)cc1

Columns and labels:
Format in all cases: biochemical, Alkaliphillus transvaalensis
alkaline protease ALTP [1] = details: for Residual activity (%): pH 10
alkaline protease ALTP [2] = assay: Influence of inhibitors on residual activity
Description: Each inhibitor was added to 20 mmol/L phosphate buffer (pH 7) at a predetermined concentration, and the invention enzyme was added thereto. The solution was warmed at 30° C. for 20 minutes. Subsequently, the resulting solution was approximately diluted with 50 mmol/L borate buffer (pH 10), and the residual activity was measured.

alkaline protease ALTP [3] = assay: Influence of surfactants on residual activity (casein method); details: for Residual activity (%): pH 9.0, 40° C., 4 hours, time 0 = 100%
Description: Influence of surfactants on alkaline protease ALTP of the invention was examined. That is, the invention enzyme solution was added to 0.1 mol/L Tris-hydrochloride buffer (pH 9.0), and each of various surfactants shown in Table 4 was added to the solution. The treatment was conducted at 40° C. for 4 hours. Subsequently, the solution was properly diluted with 50 mmol/L borate buffer (pH 10.5) containing 2 mmol/L calcium chloride, and the residual activity was measured by the casein method. The residual activity was expressed in terms of a relative value when an activity value (treatment time 0 minute) immediately after addition of the enzyme to each sample was defined as 100%.

alkaline protease ALTP [4] = assay: Action on synthetic substrates (synthetic substrate method, p-nitroaniline release); details: for Relative activity (%): activity to AAPF = 100%, pH 10.0, 30° C., 10 minutes
Description: 0.9 ml of 100 mmol/L borate buffer (pH=10.0, containing 2 mmol/L calcium chloride) was mixed with 0.05 ml of a 50 mmol/L synthetic substrate solution (solution obtained by dissolving a p-nitroanilide derivative of an oligopeptide in dimethyl sulfoxide), and the mixture was warmed at 30° C. for 5 minutes. Then, 0.05 ml of the enzyme solution was added, and a reaction was conducted at 30° C. for 10 minutes. 2 ml of a 5% (w/v) citric acid solution was added to terminate the reaction. Absorbance at 420 nm was measured with a spectrophotometer to quantify liberated p-nitroaniline.
Herein, one unit (PU) of the enzyme referred to an amount of an enzyme required to liberate 1 μmol of p-nitroaniline for 1 minute under the foregoing reaction conditions.
Reactivity of alkaline protease ALTP of the invention with each synthetic substrate was measured using synthetic oligopeptide substrates shown in Table 6.
0.9 ml of 100 mmol/L borate buffer (pH=10.0, containing 2 mmol/L calcium chloride) was mixed with 0.05 ml of a 50 mmol/L synthetic substrate solution shown in Table 6. After the mixture was warmed at 30° C. for 5 minutes, 0.05 ml of the enzyme solution was added thereto, and the reaction was conducted at 30° C. for 10 minutes. 2 ml of a 5% (w/v) citric acid solution was added to terminate the reaction. Absorbance at 420 nm was measured using a spectrophotometer, and p-nitroaniline liberated was quantified.
Target sequence in this assay (as listed by the source): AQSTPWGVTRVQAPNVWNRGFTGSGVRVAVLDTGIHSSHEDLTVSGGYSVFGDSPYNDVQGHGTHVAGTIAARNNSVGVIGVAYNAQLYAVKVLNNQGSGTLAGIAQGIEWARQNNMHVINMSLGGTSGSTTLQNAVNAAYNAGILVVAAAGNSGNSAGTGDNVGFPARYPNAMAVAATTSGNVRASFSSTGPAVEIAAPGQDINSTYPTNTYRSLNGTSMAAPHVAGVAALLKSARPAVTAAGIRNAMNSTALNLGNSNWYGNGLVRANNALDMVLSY

[5] = inhibitor 0.1 mM, pH 7, 30° C., 20 minutes
[6] = inhibitor 1.0 mM, pH 7, 30° C., 20 minutes

[Ba+2].[Cl-].[Cl-] [BaCl2]
inhibition by metal ion (alkaline protease ALTP [1]; concentration of 1 mM): not inhibited
Residual activity (%) (alkaline protease ALTP [1]): 100%

CC(C)C[C@H](NC(=O)[C@@H](O)[C@H](N)Cc1ccccc1)C(=O)O [Bestatin]
Residual activity (%) (alkaline protease ALTP [2]; [5]): 106%

[Ca+2].[Cl-].[Cl-] [CaCl2]
inhibition by metal ion (alkaline protease ALTP [1]; concentration of 1 mM): not inhibited
Residual activity (%) (alkaline protease ALTP [1]): 118%

[Cl][Cd][Cl] [CdCl2]
inhibition by metal ion (alkaline protease ALTP [1]; concentration of 1 mM): not inhibited
Residual activity (%) (alkaline protease ALTP [1]): 100%

CC(C)C[C@H](NC(=O)[C@@H](NC(=O)N[C@@H](Cc1ccccc1)C(=O)O)[C@@H]1CCN=C(N)N1)C(=O)N[C@H](C=O)Cc1ccccc1 [Chymostatin]
inhibition (alkaline protease ALTP [2]; 30 ppm): completely inhibited
Residual activity (%) (alkaline protease ALTP [2]; inhibitor 30 ppm, pH 7, 30° C., 20 minutes): 0%

[Cl-].[Cl-].[Co+2] [CoCl2]
inhibition by metal ion (alkaline protease ALTP [1]): not inhibited
Residual activity (%) (alkaline protease ALTP [1]): 92%

[Cl][Cu][Cl] [CuCl2]
inhibition by metal ion (alkaline protease ALTP [1]; concentration of 1 mM): not inhibited
Residual activity (%) (alkaline protease ALTP [1]): 109%

O=C(O)CN(CCN(CC(=O)O)CC(=O)O)CC(=O)O [EDTA, ethylenediamine tetraacetic acid]
inhibition (alkaline protease ALTP [2]; 100 mM): little inhibited; also recorded: not inhibited
Residual activity (%) (alkaline protease ALTP [2]; inhibitor 100 mM, pH 7, 30° C., 20 minutes): 100%

[Cl][Fe][Cl] [FeCl2]
Residual activity (%) (alkaline protease ALTP [1]): 120%

[Cl][Fe]([Cl])[Cl] [FeCl3]
Residual activity (%) (alkaline protease ALTP [1]): 110%

[Cl][Hg][Cl] [HgCl2]
inhibition by metal ion (alkaline protease ALTP [1]; concentration of 1 mM): inhibited
Residual activity (%) (alkaline protease ALTP [1]): 15%

O=C(O)CI [Iodine acetate]
Residual activity (%) (alkaline protease ALTP [2]; pH 7): 104%

[Cl-].[K+] [KCl]
inhibition by metal ion (alkaline protease ALTP [1]; concentration of 1 mM): not inhibited
Residual activity (%) (alkaline protease ALTP [1]): 111%

CC(=O)N[C@@H](CC(C)C)C(=O)N[C@@H](CC(C)C)C(=O)N[C@H](C=O)CCCNC(=N)N [Leupeptin]
Residual activity (%) (alkaline protease ALTP [2]; [5]): 100%

[Cl-].[Li+] [LiCl2]
inhibition by metal ion (alkaline protease ALTP [1]; concentration of 1 mM): not inhibited
Residual activity (%) (alkaline protease ALTP [1]): 114%

[Cl-].[Cl-].[Mg+2] [MgCl2]
inhibition by metal ion (alkaline protease ALTP [1]; concentration of 1 mM): not inhibited
Residual activity (%) (alkaline protease ALTP [1]): 105%

[Cl][Mn][Cl] [MnCl2]
inhibition by metal ion (alkaline protease ALTP [1]; concentration of 1 mM): not inhibited
Residual activity (%) (alkaline protease ALTP [1]): 113%

O=C1CCC(=O)N1Br [N-bromosuccinic acid imide]
Residual activity (%) (alkaline protease ALTP [2]; [6]): 104%

[Cl-].[Na+] [NaCl]
inhibition by metal ion (alkaline protease ALTP [1]): not inhibited
Residual activity (%) (alkaline protease ALTP [1]): 112%

[Cl][Ni][Cl] [NiCl2]
inhibition by metal ion (alkaline protease ALTP [1]; concentration of 1 mM): not inhibited
Residual activity (%) (alkaline protease ALTP [1]): 94%

O=S(=O)(F)Cc1ccccc1 [PMSF, phenylmethanesulfonyl fluoride]
inhibition (alkaline protease ALTP [2]; 1 mM): completely inhibited
Residual activity (%) (alkaline protease ALTP [2]; [6]): 0%

[Cl][Pb][Cl] [PbCl2]
inhibition by metal ion (alkaline protease ALTP [1]; concentration of 1 mM): not inhibited
Residual activity (%) (alkaline protease ALTP [1]): 115%

[Cl][Sn][Cl] [SnCl2]
inhibition by metal ion (alkaline protease ALTP [1]; concentration of 1 mM): not inhibited
Residual activity (%) (alkaline protease ALTP [1]): 108%

CCCCCCCCCCCCOS(=O)(=O)[O-].[Na+] [Sodium dodecyl sulfate]
inhibition of activity by surfactant (alkaline protease ALTP [3]): not inhibited
Residual activity (%) (alkaline protease ALTP [3]; surfactant 10.0%): 104%
inhibition (alkaline protease ALTP [2]; 1 mM): little inhibited

[Cl-].[Cl-].[Zn+2] [ZnCl2]
inhibition by metal ion (alkaline protease ALTP [1]; concentration of 1 mM): not inhibited
Residual activity (%) (alkaline protease ALTP [1]): 121%

O=C(O)c1cc[c]([Hg][Cl])cc1 [p-chloromercuribenzoic acid]
inhibition (alkaline protease ALTP [2]; 1 mM): little inhibited

NC(N)=O [urea]
inhibition (alkaline protease ALTP [2]; 0.5 M): little inhibited

Linear sodium alkylbenzene sulfonate
inhibition of activity by surfactant (alkaline protease ALTP [3]): not inhibited
Residual activity (%) (alkaline protease ALTP [3]; surfactant 1.0%): 98%

N- succinyl-Gly-Gly-Phe-p-nitroanilide (GGF; HELM PEPTIDE1{[O=C(O)CCC(=O)[*:2]].G.G.F.[O=[N+]([O-])c1ccc(N[*:1])cc1]}$$$$V2.0; SMILES O=C(O)CCC(=O)NCC(=O)NCC(=O)N[C@@H](Cc1ccccc1)C(=O)Nc1ccc([N+](=O)[O-])cc1) [synthetic substrate]
activity to further synthetic substrates (alkaline protease ALTP [4]): showed activity

N-carboxybenzoxy-Phe-Val-Arg-p-nitroanilide (carboxybenzoxy-Phe-Val-Arg-pNA) [Z-FVR, synthetic substrate]
activity to further synthetic substrates (alkaline protease ALTP [4]): showed activity

N-glutaryl-Ala-Ala-Pro-Leu-p-nitroanilide (AAPL; HELM PEPTIDE1{[O=C(O)CCCC(=O)[*:2]].A.A.P.L.[O=[N+]([O-])c1ccc(N[*:1])cc1]}$$$$V2.0; SMILES CC(C)C[C@H](NC(=O)[C@@H]1CCCN1C(=O)[C@H](C)NC(=O)[C@H](C)NC(=O)CCCC(=O)O)C(=O)Nc1ccc([N+](=O)[O-])cc1) [synthetic substrate]
Relative activity (%) (alkaline protease ALTP [4]): 91%

N-methoxysuccinyl- Ala-Ile-Pro-Met-p-nitroanilide (AIPM; HELM PEPTIDE1{[COC(=O)CCC(=O)[*:2]].A.I.P.M.[O=[N+]([O-])c1ccc(N[*:1])cc1]}$$$$V2.0; SMILES CC[C@H](C)[C@H](NC(=O)[C@H](C)NC(=O)CCC(=O)OC)C(=O)N1CCC[C@H]1C(=O)N[C@@H](CCSC)C(=O)Nc1ccc([N+](=O)[O-])cc1) [synthetic substrate]
Relative activity (%) (alkaline protease ALTP [4]): 90%

N-p-tosyl-Gly-Pro-Lys-p-nitroanilide ({p‑tosyl}-Gly-Pro-Lys-pNA) [To-GPK, synthetic substrate]
activity to further synthetic substrates (alkaline protease ALTP [4]): showed activity

N-succinyl-Ala-Ala-Ala-p-nitroanilide [AAA]
activity to further synthetic substrates (alkaline protease ALTP [4]): showed activity

N-succinyl-Ala-Ala-Pro-Met-p-nitroanilide (AAPM; HELM PEPTIDE1{[O=C(O)CCC(=O)[*:2]].A.A.P.M.[O=[N+]([O-])c1ccc(N[*:1])cc1]}$$$$V2.0; SMILES CSCC[C@H](NC(=O)[C@@H]1CCCN1C(=O)[C@H](C)NC(=O)[C@H](C)NC(=O)CCC(=O)O)C(=O)Nc1ccc([N+](=O)[O-])cc1) [synthetic substrate]
Relative activity (%) (alkaline protease ALTP [4]): 74%

N-succinyl-Ala-Ala-Pro-Phe-p-nitroanilide [AAPF]
Relative activity (%) (alkaline protease ALTP [4]): 100%

N-succinyl-Ala-Ala-Val-Ala-p- nitroanilide (AAVA; HELM PEPTIDE1{[O=C(O)CCC(=O)[*:2]].A.A.V.A.[O=[N+]([O-])c1ccc(N[*:1])cc1]}$$$$V2.0; SMILES CC(C)[C@H](NC(=O)[C@H](C)NC(=O)[C@H](C)NC(=O)CCC(=O)O)C(=O)N[C@@H](C)C(=O)Nc1ccc([N+](=O)[O-])cc1) [synthetic substrate]
Relative activity (%) (alkaline protease ALTP [4]): 4.6%

N-succinyl-Ala-Ala-p-nitroanilide [AA]
activity to further synthetic substrates (alkaline protease ALTP [4]): showed activity

Polyoxyethylene alkyl alcohol
inhibition of activity by surfactant (alkaline protease ALTP [3]): not inhibited
Residual activity (%) (alkaline protease ALTP [3]; surfactant 1.0%): 107%

Sodium alkane sulfonate
inhibition of activity by surfactant (alkaline protease ALTP [3]): not inhibited
Residual activity (%) (alkaline protease ALTP [3]; surfactant 10.0%): 107%

Sodium polyoxyethylene alkyl sulfate
inhibition of activity by surfactant (alkaline protease ALTP [3]): not inhibited
Residual activity (%) (alkaline protease ALTP [3]; surfactant 1.0%): 99%

Sodium α-olefin sulfonate
inhibition of activity by surfactant (alkaline protease ALTP [3]): not inhibited
Residual activity (%) (alkaline protease ALTP [3]; surfactant 1.0%): 128%

butyroxycarboxy-Leu-Ser- Thr-Arg-p-nitroanilide (butyroxycarboxy-LSTR-pNA; reading uncertain) [synthetic substrate]
activity to further synthetic substrates (alkaline protease ALTP [4]): showed activity

triton X-100
inhibition (alkaline protease ALTP [2]; 1%): little inhibited

α-sulfo-fatty acid ester
inhibition of activity by surfactant (alkaline protease ALTP [3]): not inhibited
Residual activity (%) (alkaline protease ALTP [3]; surfactant 1.0%): 106%
